From US12344595B2, “2-amino-n-phenyl-nicotinamides as NAV1.8 inhibitors” (Merck Sharp & Dohme LLC, priority 2018, dated 2025)

Molecular target: human Nav1.8 (Homo sapiens (Human), UniProt Q9Y5Y9)
Test: Nav1.8 Qube automated patch-clamp assay
Type: cell-based
Details: Nav1.8 Qube Assay; human Nav1.8 channels stably expressed in HEK 293 cells
Protocol: Qube® Assay Experimental Procedure
Compounds were tested on human Nav1.8 and Nav1.5 channels stably expressed in human embryo kidney (HEK) 293 cells. Sodium current measurements on Qube® were conducted as follows: automated 384-well patch-clamp assays on the Qube® platform (Sophion Biosciences) were used to measure the inhibition of sodium flow through human Nav1.8 and Nav1.5 channels. Whole-cell voltage-clamp recordings were performed in QChips® (Sophion Biosciences) at room temperature. Nav1.8 current measurements on Qube® were obtained as follows: Nav1.8 currents were elicited with a 10 second 1 Hertz (Hz) pulse train from a holding potential of −90 millivolts (mV), delivered to the cells once per minute in the control condition (DMSO only) and after compound addition. The 1 hertz pulse train stimulation consisted of ten test pulses to 10 millivolt (mV) for 20 milliseconds (ms), each of which was followed by a 980 millisecond repolarization to −67 millivolts. At the end of the 10 second pulse train stimulation, a 5 second hyperpolarization step to −100 millivolt (mV) was used to recover Nav1.8 from fast inactivation. The peak currents elicited by the 1st and 10th test pulses were used to determine IC50 values for resting inhibition and inactivated state inhibition. Nav1.5 current measurements on Qube® were obtained as follows: Nav1.5 currents were elicited with a 20 second 3 Hertz pulse train in the control condition (DMSO only) and after compound addition. The pulse train consisted of sixty 20 millisecond test pulses to 0 millivolt from a holding potential of −80 millivolt (mV). The average peak currents elicited by the last 3 test pulses were used to determine IC50 values for Nav1.5 inhibition.
The following buffers were used for the Qube® recordings: External buffer for Nav1.8 Qube® recording: 150 NaCl, 2 CaCl2, 5 KCl, 1 Mg Cl2, 10 HEPES, 12 Dextrose; External buffer for Qube® Nav1.5 recording: 120 N-Methyl-D-Glucamine, 40 NaCl, 1 KCl, 2.7 CaCl2, 5 HEPES, 0.5 MgCl2; and Internal buffer for Qube® recording: 120 CsF, 30 CsCl, 10 EGTA, 5 HEPES, 5 NaF, 2 MgCl2.
For all Qube® experiments offline analysis was used to determine percent inhibition as a function of drug concentration. IC50 values were determined by fitting to the Hill equation.

Chain of human Nav1.8 (Q9Y5Y9 whole entry): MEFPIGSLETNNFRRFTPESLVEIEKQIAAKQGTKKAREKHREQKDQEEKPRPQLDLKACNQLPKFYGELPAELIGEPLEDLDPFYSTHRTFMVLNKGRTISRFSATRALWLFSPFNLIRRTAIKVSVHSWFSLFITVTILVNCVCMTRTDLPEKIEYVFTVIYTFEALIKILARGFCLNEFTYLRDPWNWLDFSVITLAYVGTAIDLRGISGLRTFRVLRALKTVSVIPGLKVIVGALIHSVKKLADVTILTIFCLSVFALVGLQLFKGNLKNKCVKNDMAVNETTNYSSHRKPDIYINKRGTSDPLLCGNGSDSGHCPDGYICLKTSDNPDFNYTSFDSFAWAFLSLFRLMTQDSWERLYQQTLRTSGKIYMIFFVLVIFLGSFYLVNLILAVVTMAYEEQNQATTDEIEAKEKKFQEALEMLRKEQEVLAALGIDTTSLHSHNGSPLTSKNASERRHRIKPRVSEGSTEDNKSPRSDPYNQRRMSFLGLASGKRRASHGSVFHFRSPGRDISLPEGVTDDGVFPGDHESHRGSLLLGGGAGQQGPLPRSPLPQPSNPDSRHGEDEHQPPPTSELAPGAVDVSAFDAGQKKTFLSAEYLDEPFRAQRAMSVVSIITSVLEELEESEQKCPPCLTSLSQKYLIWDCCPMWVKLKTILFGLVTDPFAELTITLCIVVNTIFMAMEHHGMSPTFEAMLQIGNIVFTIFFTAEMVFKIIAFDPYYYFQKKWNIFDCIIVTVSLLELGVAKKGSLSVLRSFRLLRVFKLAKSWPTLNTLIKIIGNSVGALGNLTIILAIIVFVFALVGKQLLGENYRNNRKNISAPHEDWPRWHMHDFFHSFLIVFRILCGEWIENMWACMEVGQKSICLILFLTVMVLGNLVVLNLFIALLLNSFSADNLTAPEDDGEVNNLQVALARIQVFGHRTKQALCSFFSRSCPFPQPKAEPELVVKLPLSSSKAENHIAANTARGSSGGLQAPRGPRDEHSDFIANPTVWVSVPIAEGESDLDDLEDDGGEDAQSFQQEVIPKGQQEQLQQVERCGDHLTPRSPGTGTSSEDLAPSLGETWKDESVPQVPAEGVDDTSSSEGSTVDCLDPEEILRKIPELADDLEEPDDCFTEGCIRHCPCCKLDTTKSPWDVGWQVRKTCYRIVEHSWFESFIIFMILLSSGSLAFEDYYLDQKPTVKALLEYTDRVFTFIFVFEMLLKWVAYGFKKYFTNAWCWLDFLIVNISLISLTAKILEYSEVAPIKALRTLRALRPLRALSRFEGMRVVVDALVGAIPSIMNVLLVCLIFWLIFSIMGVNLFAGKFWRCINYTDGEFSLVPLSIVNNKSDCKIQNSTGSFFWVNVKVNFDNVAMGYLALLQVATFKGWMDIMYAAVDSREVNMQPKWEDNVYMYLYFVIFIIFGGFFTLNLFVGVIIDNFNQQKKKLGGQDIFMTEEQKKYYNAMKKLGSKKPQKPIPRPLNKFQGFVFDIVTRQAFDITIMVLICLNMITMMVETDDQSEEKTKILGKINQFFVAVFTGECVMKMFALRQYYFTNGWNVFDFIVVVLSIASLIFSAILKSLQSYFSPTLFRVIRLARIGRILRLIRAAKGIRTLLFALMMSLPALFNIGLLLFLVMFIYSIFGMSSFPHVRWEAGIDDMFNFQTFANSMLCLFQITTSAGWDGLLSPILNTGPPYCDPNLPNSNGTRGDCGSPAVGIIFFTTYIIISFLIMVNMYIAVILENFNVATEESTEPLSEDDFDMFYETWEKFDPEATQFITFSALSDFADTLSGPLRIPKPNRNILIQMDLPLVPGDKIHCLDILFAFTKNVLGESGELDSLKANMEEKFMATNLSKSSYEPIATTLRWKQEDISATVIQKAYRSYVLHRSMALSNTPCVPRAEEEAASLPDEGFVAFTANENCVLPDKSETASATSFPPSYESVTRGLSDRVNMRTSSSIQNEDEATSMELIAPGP

| Structure (SMILES) | IC50 [nM] |
| --- | --- |
| C[Si](C)(C)c1cnc(N2CCCCCC2)c(C(=O)Nc2cccc(S(N)(=O)=O)c2)c1 [Example 86, 2-(azepan-1-yl)-N-(3-sulfamoylphenyl)-5-(trimethylsilyl)nicotinamide] | 77 |
| CS(=O)(=O)c1cccc(NC(=O)c2cc(C(F)(F)F)cnc2N2CCC(c3ccccc3)CC2)c1 [Example 105, N-(3-methylsulfonylphenyl)-2-(4-phenyl-1-piperidyl)-5-(trifluoro-methyl)pyridine-3-carboxamide] | 8720 |
| COC(=O)C1CCCCN(c2ncc(C(F)(F)F)cc2C(=O)Nc2cccc(S(N)(=O)=O)c2)C1 (centres unmarked) [Example 67, methyl 1-[3-[(3-sulfamoylphenyl)carbamoyl]-5-(trifluoro-methyl)-2-pyridyl]-azepane-3-carboxylate] | 2980 |
| NS(=O)(=O)c1cc(NC(=O)c2cc(C(F)(F)F)cnc2N2CCC(F)(F)CC2)cc(F)c1F [Example 171, N-(3,4-difluoro-5-sulfamoylphenyl)-2-(4,4-difluoropiperidin-1-yl)-5-(trifluoro-methyl)nicotinamide] | 137 |
| NS(=O)(=O)c1cccc(NC(=O)c2ccc(OC(F)(F)F)nc2N2CCCCC2)c1 [Example 84, 2-(piperidin-1-yl)-N-(3-sulfamoylphenyl)-6-(trifluoromethoxy)nicotinamide] | 248 |
| O=C(Nc1ccc2c(c1)S(=O)(=O)C=C2)c1cc(C(F)(F)F)cnc1N1CCCCCC1 [Example 118, 2-(azepan-1-yl)-N-(1,1-dioxobenzothiophen-6-yl)-5-(trifluoromethyl)-pyridine-3-carboxamide] | 2280 |
| CC12CCN(c3ncc(C(F)(F)F)cc3C(=O)Nc3cccc(S(N)(=O)=O)c3)CC1C2(F)F (single isomer, unassigned) [Example 129, 2-[(1S,6S or 1R,6R)-7,7-difluoro-6-methyl-3-azabicyclo[4.1.0]heptan-3-yl]-N-(3-sulfamoyl-phenyl)-5-(trifluoro-methyl)pyridine-3-carboxamide] | 63 |
| COC(=O)C1CCN(c2ncc(C(F)(F)F)cc2C(=O)Nc2cccc(S(N)(=O)=O)c2)CC1 [Example 61, methyl 1-[3-[(3-sulfamoylphenyl)carbamoyl]-5-(trifluoro-methyl)-2-pyridyl]-piperidine-4-carboxylate] | 1620 |
| Cc1ccc(C(=O)Nc2cccc(C(N)=O)c2)c(N2CCCC(F)(F)CC2)n1 [Example 75, N-(3-carbamoylphenyl)-2-(4,4-difluoroazepan-1-yl)-6-methylnicotinamide] | 16 |
| COc1nc(N2CCCCCC2)c(C(=O)Nc2cccc(S(N)(=O)=O)c2)cc1C(F)(F)F [Example 169, 2-(azepan-1-yl)-6-methoxy-N-(3-sulfamoylphenyl)-5-(trifluoromethyl)nicotinamide] | 42 |
| NC(=O)c1cccc(NC(=O)c2cc(C(F)(F)F)cnc2N2CC3CCC(F)(F)C3C2)c1 (centres unmarked) [Example 108, N-(3-carbamoylphenyl)-2-(4,4-difluoro-1,3,3a,- 5,6,6a-hexahydrocyclo-penta[c]pyrrol-2-yl)-5-(trifluoromethyl)-pyridine-3-carboxamide] | 148 |
| NC(=O)c1cccc(NC(=O)c2cc(C(F)(F)F)cnc2N2CCCC(F)(F)C2)c1 [Example 110, N-(3-carbamoylphenyl)-2-(3,3-difluoro-1-piperidyl)-5-(tri-fluoromethyl)pyridine-3-carboxamide] | 3770 |

The remaining molecules from weak to strong by IC50, led by results:

| IC50 [nM] | Structure (SMILES) |
| --- | --- |
| 7330 | CS(=O)(=O)c1cccc(NC(=O)c2cc(C(F)(F)F)cnc2N2CCC3OCCC32)c1 (centres unmarked) [Example 104, 2-(2,3,3a,5,6,6a-hexahydrofuro[3,2-b]pyrrol-4-yl)-N-(3-methylsulfonylphenyl)-5-(trifluoromethyl) pyridine-3-carboxamide] |
| 1830 | NS(=O)(=O)c1cccc(NC(=O)c2cc(C(F)(F)F)cnc2N2CCC(F)C2)c1 (centres unmarked) [Example 62, 2-(3-fluoropyrrolidin-1-yl)-N-(3-sulfamoyl-phenyl)-5-(trifluoro-methyl)pyridine-3-carboxamide] |
| 681 | NS(=O)(=O)c1cccc(NC(=O)c2cc(C3COC3)cnc2N2CCCC(F)(F)CC2)c1 [Example 160, 2-(4,4-difluoroazepan-1-yl)-5-(oxetan-3-yl)-N-(3-sulfamoylphenyl)nicotinamide] |
| 405 | NS(=O)(=O)c1cccc(NC(=O)c2cc(C(F)(F)F)cnc2N2CCc3scnc3C2)c1 [Example 55, 2-(6,7-dihydro-4H-thiazol[4,5-c]pyridin-5-yl)-N-(3-sulfamoyl-phenyl)-5-(trifluoro-methyl)pyridine-3-carboxamide] |
| 337 | NS(=O)(=O)c1ccc(O)c(NC(=O)c2cc(C(F)(F)F)cnc2N2CCCCCC2)c1 [Example 25, 2-(azepan-1-yl)-N-(2-hydroxy-5-sulfamoyl-phenyl)-5-(trifluoro-methyl)pyridine-3-carboxamide] |
| 73 | CC1CN(c2ncc(C(F)(F)F)cc2C(=O)Nc2ccc3c(c2)S(=O)(=O)NC3)CCC1(F)F (single isomer, unassigned) [Example 113, 2-[(3S or 3R)-4,4-difluoro-3-methyl-1-piperidyl]-N-(1,1-dioxo-2,3-dihydro-1,2-benzothiazol-6-yl)-5-(trifluoromethyl) pyridine-3-carboxamide] |
| 72 | CC1CN(c2ncc(C(F)(F)F)cc2C(=O)Nc2ccc3c(c2)S(=O)(=O)NC3)CCC1(F)F (single isomer, unassigned) [Example 112, 2-[(3R or 3S)-4,4-difluoro-3-methyl-1-piperidyl]-N-(1,1-dioxo-2,3-dihydro-1,2-benzothiazol-6-yl)-5-(trifluoromethyl) pyridine-3-carboxamide] |
| 32 | NC(=O)c1cccc(NC(=O)c2cc(C(F)(F)F)cnc2N2CCCC(F)(F)CC2)c1 [Example 106, N-(3-carbamoylphenyl)-2-(4,4-difluoroazepan-1-yl)-5-(trifluoro-methyl)pyridine-3-carboxamide] |
| 29 | CC1CCN(c2ncc(C(F)(F)F)cc2C(=O)Nc2cccc(S(N)(=O)=O)c2)CC(C)(C)C1 (centres unmarked) [Example 47, N-(3-sulfamoylphenyl)-5-(trifluoromethyl)-2-(3,3,5-trimethylazepan-1-yl)pyridine-3-carboxamide] |
| 15 | C[C@H]1CN(c2ncc(C(F)(F)F)cc2C(=O)Nc2cccc(S(N)(=O)=O)c2)C[C@H](C(F)(F)F)O1 [Example 145, 2-[(2S,6R)-2-methyl-6-(trifluoromethyl)morpholin-4-yl]-N-(3-sulfamoyl-phenyl)-5-(trifluoro-methyl)pyridine-3-carboxamide] |
| 9.2 | Cc1ccc(C(=O)Nc2cccc(S(C)(=O)=O)c2)c(N2CCCC(F)(F)CC2)n1 [Example 10, 2-(4,4-difluoroazepan-1-yl)-6-methyl-N-(3-methylsulfonylphenyl) pyridine-3-carboxamide] |
| 7 | CS(=O)(=O)c1cccc(NC(=O)c2ccc(Cl)nc2N2CCCC(F)(F)CC2)c1 [Example 9, 6-chloro-2-(4,4-difluoroazepan-1-yl)-N-(3-methylsulfonyl-phenyl)pyridine-3-carboxamide] |
| 6 | Cc1c(Cl)nc(N2CCCCCC2)c(C(=O)Nc2cccc(S(N)(=O)=O)c2)c1C [Example 174, 2-(azepan-1-yl)-6-chloro-4,5-dimethyl-N-(3-sulfamoylphenyl)-pyridine-3-carboxamide] |
| 0.7 | Cc1nc(N2CCCCCC2)c(C(=O)Nc2cccc(S(N)(=O)=O)c2)c(C)c1Cl [Example 2, 2-(azepan-1-yl)-5-chloro-4,6-dimethyl-N-(3-sulfamoylphenyl)nicotinamide] |
